In patent publication US10278971B2, “Fluorocyclopentenylcytosine methods of use” (Rexahn Pharmaceuticals, Inc., priority 2015, dated 2019):

Assay: Open-label dose-ranging study: pharmacokinetics, safety and tolerability of oral doses
Format: in vivo, human
Conditions: for AUC(0-t): AUC0-24
Method: In an open-label, dose-ranging study, the pharmacokinetics (PK) of RX-3117 at various oral doses was evaluated. Subjects with advanced malignant tumors were administered capsules containing RX-3117 at daily doses of 30 mg (N=1), 60 mg (N=1), 100 mg (N=3), 150 mg (N=3), 200 mg (N=3), 500 mg (N=3), 1000 mg (N=3), 1500 mg (N=4), and 2000 mg (N=5 to date) 3 times a week (TIWK) for 3 weeks with 1 week off during each 4 week cycle. Based on the continued safety profile, and to enhance weekly RX-3117 exposure, more frequent dosing was also implemented. In addition to the TIWK dosing scheme discussed above, subjects also received 500 mg and 700 mg 5 times a week, and 500 mg for 7 times a week for 3 weeks with 1 week off during each 4 week cycle. Dose escalation began with an accelerated design treating 1 subject per dose (Simon et al., J Natl. Cancer Inst., 89(15):1138-47 (1997) followed by a standard 3+3 design using a modified Fibonacci sequence after the occurrence of a single related Grade 2 or greater adverse event. Table 3 summarizes the dosing schedule.
The efficacy, safety and tolerability of RX-3117 at various doses and frequencies were evaluated (see Example 4, above). Subjects with advanced malignant tumors were administered capsules containing RX-3117 at various doses, from TIWK to 7 times per week for 3 weeks with 1 week off during each 4-week cycle. Dose escalation begins with an accelerated design treating 1 subject per dose (Simon et al., J. Natl. Cancer Inst., 89(15):1138-47 (1997) followed by a standard 3+3 design using a modified Fibonacci sequence after the occurrence of a single related Grade 2 or greater adverse event. Table 4 (above) summarizes the dosing schedule.

Nc1ccn([C@@H]2C(F)=C(CO)[C@@H](O)[C@H]2O)c(=O)n1 [RX-3117, 4-amino-1-((1S,4R,5S)-2-fluoro-4,5-dihydroxy-3-hydroxymethyl-cyclopent-2-enyl)-1H-pyrimidin-2-one]
maximum tolerated dose (MTD) (5 days per week, three weeks with 1 week off per 4-week cycle): 700 mg daily | maximal tolerated dose (Phase I clinical study, as stated in Example 7): higher than 2,000 mg/day | apparent terminal T1/2, mean values (human, in vivo): 12.3 to 20.2 h | dose limiting toxicities (human, in vivo): Grade 3 anemia, thrombocytopenia | share of AUC0-t (0-24 hours) observed in the first 8 hours (human, in vivo): about half | share of AUC observed by 24 hours (human, in vivo): over 80% | half-life (human, in vivo, apparent terminal T1/2, mean values): 11.6 to 16.7 h | Tmax (human, in vivo, po, 30 mg, Tmax): 2 h | AUC0-24 (human, in vivo, po, 60 mg): 1164 ng·h/mL | Cmax (human, in vivo, po, 60 mg): 139 ng/mL | T1/2 (human, in vivo, po, 60 mg): 16.2 h | AUC(0-t) (human, in vivo, po, 60 mg): 1570 ng·h/mL | Cmax (human, in vivo, po, 60 mg, Cmax): 113 ng/mL | half-life (human, in vivo, po, 60 mg, T1/2): 15.7 h | Tmax (human, in vivo, po, 60 mg, Tmax): 4 h | AUC0-24 (human, in vivo, po, 100 mg): 2714 ng·h/mL | Cmax (human, in vivo, po, 100 mg): 357 ng/mL | T1/2 (human, in vivo, po, 100 mg): 15.4 h | AUC(0-t) (human, in vivo, po, 100 mg): 3290 ng·h/mL | Cmax (human, in vivo, po, 100 mg, Cmax): 460 ng/mL | half-life (human, in vivo, po, 100 mg, T1/2): 20.2 h | Tmax (human, in vivo, po, 100 mg, Tmax): 2 h | AUC0-24 (human, in vivo, po, 150 mg): 2437 ng·h/mL | Cmax (human, in vivo, po, 150 mg): 360 ng/mL | T1/2 (human, in vivo, po, 150 mg): 15.1 h | AUC(0-t) (human, in vivo, po, 150 mg): 3550 ng·h/mL | Cmax (human, in vivo, po, 150 mg, Cmax): 511 ng/mL | half-life (human, in vivo, po, 150 mg, T1/2): 13.9 h | Tmax (human, in vivo, po, 150 mg, Tmax): 3 h | AUC0-24 (human, in vivo, po, 200 mg): 4574 ng·h/mL | Cmax (human, in vivo, po, 200 mg): 643 ng/mL | T1/2 (human, in vivo, po, 200 mg): 16.2 h | AUC(0-t) (human, in vivo, po, 200 mg): 4720 ng·h/mL | Cmax (human, in vivo, po, 200 mg, Cmax): 637 ng/mL | half-life (human, in vivo, po, 200 mg, T1/2): 13.3 h | Tmax (human, in vivo, po, 200 mg, Tmax): 2 h | Tmax (human, in vivo, po, 500 mg): 2.5 h | AUC(0-t) (human, in vivo, po, 500 mg): 7920 ng·h/mL | Cmax (human, in vivo, po, 500 mg, Cmax): 1100 ng/mL | Tmax (human, in vivo, po, 500 mg, Tmax): 2 h | AUC0-24 (human, in vivo, po, 700 mg): 6321 ng·h/mL | Cmax (human, in vivo, po, 700 mg): 674 ng/mL | T1/2 (human, in vivo, po, 700 mg): 11.2 h | AUC(0-t) (human, in vivo, po, 700 mg): 8660 ng·h/mL | Cmax (human, in vivo, po, 700 mg, Cmax): 989 ng/mL | half-life (human, in vivo, po, 700 mg, T1/2): 9.05 h | Tmax (human, in vivo, po, 700 mg, Tmax): 3 h | AUC0-24 (human, in vivo, po, 1000 mg): 9753 ng·h/mL | Cmax (human, in vivo, po, 1000 mg): 1210 ng/mL | T1/2 (human, in vivo, po, 1000 mg): 14.9 h | AUC(0-t) (human, in vivo, po, 1000 mg): 12200 ng·h/mL | Cmax (human, in vivo, po, 1000 mg, Cmax): 1640 ng/mL | half-life (human, in vivo, po, 1000 mg, T1/2): 11.6 h | Tmax (human, in vivo, po, 1000 mg, Tmax): 2 h | Cmax (human, in vivo, po, 1500 mg): 883 ng/mL | T1/2 (human, in vivo, po, 1500 mg): 13.8 h | Cmax (human, in vivo, po, 1500 mg, Cmax): 1620 ng/mL | half-life (human, in vivo, po, 1500 mg, T1/2): 11.8 h | Tmax (human, in vivo, po, 1500 mg, Tmax): 3 h | AUC0-24 (human, in vivo, po, 2000 mg): 17403 ng·h/mL | Cmax (human, in vivo, po, 2000 mg): 1703 ng/mL | T1/2 (human, in vivo, po, 2000 mg): 12.1 h | AUC(0-t) (human, in vivo, po, 2000 mg): 17000 ng·h/mL | Cmax (human, in vivo, po, 2000 mg, Cmax): 1860 ng/mL | half-life (human, in vivo, po, 2000 mg, T1/2): 13.3 h | Tmax (human, in vivo, po, 2000 mg, Tmax): 3 h | Tmax (human, in vivo, po, median Tmax): 2 to 3 h | accumulation (in vivo): generally minimal | most frequent related adverse events (in vivo): moderate to severe anemia, mild to moderate fatigue and nausea, mild diarrhea, vomiting, and anorexia | most frequently observed adverse events (in vivo): mild to moderate fatigue and nausea, mild diarrhea, mild vomiting, mild anorexia and moderate dehydration
